Source: ChEMBL document CHEMBL1131673, “Potent and orally bioavailable noncysteine-containing inhibitors of protein farnesyltransferase” (Bioorg Med Chem Lett, 1999)

Assays:
[1] = molecular target: Protein farnesyltransferase (Homo sapiens, UniProt P49354+P49356); assay: In vitro inhibitory activity was evaluated against farnesyltransferase (FTase); format: protein-complex assay
Canis familiaris = assay: Maximum plasma drug concentration of compound determined in dog […] at a dose of 10 mg/kg; format: ADME, organism-based, Canis lupus familiaris; design: dose 10 mg/kg, route intravenous; settings: in vivo
[2] = Tmax of compound determined in rat after iv administration at a dose of 10 mg/kg; format: ADME, organism-based; design: dose 10 mg/kg, route intravenous; settings: in vivo
[3] = Area under curve of compound determined in rat after iv administration at a dose of 10 mg/kg; format: ADME, organism-based; design: dose 10 mg/kg, route intravenous; settings: in vivo
[4] = Area under curve of compound determined in dog after iv administration at a dose of 10 mg/kg; format: ADME, organism-based, Canis lupus familiaris; design: dose 10 mg/kg, route intravenous; settings: in vivo
[5] = (§1) Half life of compound determined in rat after iv administration at a dose of 10 mg/kg; format: ADME, organism-based; design: dose 10 mg/kg, route intravenous; settings: in vivo
[6] = Oral bioavailability of compound determined in rat […] at a dose of 10 mg/kg; format: ADME, organism-based; settings: in vivo
Rattus norvegicus = assay: Maximum plasma drug concentration of compound determined in rat after iv administration at a dose of 10 mg/kg; format: ADME, organism-based; design: dose 10 mg/kg, route intravenous; settings: in vivo
[7] = Tmax of compound determined in dog […] at a dose of 10 mg/kg; format: ADME, organism-based, Canis lupus familiaris; design: dose 10 mg/kg, route intravenous; settings: in vivo
[8] = Oral bioavailability of compound determined in dog […] at a dose of 10 mg/kg; format: ADME, organism-based, Canis lupus familiaris; settings: in vivo
[9] = Area under curve of compound from zero time to infinity determined in rat after iv administration at a dose of 10 mg/kg; format: ADME, organism-based; design: time infinity, dose 10 mg/kg, route intravenous; settings: in vivo
[10] = as §1; format: ADME, organism-based; design: dose 10 mg/kg, route intravenous; settings: in vivo; remark: listed apart in the source
[11] = Area under curve of compound from zero time to infinity determined in dog […] at a dose of 10 mg/kg; format: ADME, organism-based, Canis lupus familiaris; design: time infinity, dose 10 mg/kg, route intravenous; settings: in vivo
[12] = Oral bioavailability of compound determined in mouse […] at a dose of 10 mg/kg; format: ADME, organism-based; settings: in vivo

Row | Structure (SMILES) | IC50 [1] | further results
1 | CSCC[C@H](NC(=O)c1ccc(COCc2ccc(-c3ccncc3)o2)cc1-c1ccccc1C)C(=O)O | 2.4 nM | 
2 | CSCC[C@H](NC(=O)c1ccc(COCc2ccc(-c3cccc(C(F)(F)F)c3)o2)cc1-c1ccccc1C)C(=O)O | 8.8 nM | 
3 | CSCC[C@H](NC(=O)c1ccc(COCc2ccc(-c3cccnc3)o2)cc1-c1ccccc1C)C(=O)O | 6.5 nM | 
4 | CSCC[C@H](NC(=O)c1ccc(COCc2ccc(-c3ccc(F)cc3)o2)cc1-c1ccccc1C)C(=O)O | 1.5 nM | 
5 | CSCC[C@H](NC(=O)c1ccc(COCc2ccc(-c3ccc(C(C)C)cc3)o2)cc1-c1ccccc1C)C(=O)O | 2.9 nM | 
6 | CSCC[C@H](NC(=O)c1ccc(COCc2ccc(-c3ccc(Cl)cc3)o2)cc1-c1ccccc1C)C(=O)[O-].[Li+] | 0.7 nM | Cmax (Canis familiaris): 713 ng/mL; Tmax [2]: 42 min; AUC [3]: 8100 ng·h/mL; AUC [4]: 4940 ng·h/mL; half-life [5]: 74.4 min; bioavailability [6]: 30%; Cmax (Rattus norvegicus): 1250 ng/mL; Tmax [7]: 24 min; bioavailability [8]: 21.1%; AUC [9]: 2390 ng·h/mL; half-life [10]: 78 min; AUC [11]: 1040 ng·h/mL; bioavailability [12]: 32%
7 | CSCC[C@H](NC(=O)c1ccc(COCc2ccc(-c3ccc(Cl)c(F)c3)o2)cc1-c1ccccc1C)C(=O)O | 4.9 nM | 
8 | CSCC[C@H](NC(=O)c1ccc(COCc2ccc(-c3ccc(N(C)C)cc3)o2)cc1-c1ccccc1C)C(=O)O | 2.6 nM | 
9 | CSCC[C@H](NC(=O)c1ccc(COCc2ccc(-c3cccc(F)c3)o2)cc1-c1ccccc1C)C(=O)O | 7.6 nM | 
10 | COc1cccc(-c2ccc(COCc3ccc(C(=O)N[C@@H](CCSC)C(=O)O)c(-c4ccccc4C)c3)o2)c1 | 12 nM | 
11 | CSCC[C@H](NC(=O)c1ccc(COCc2ccc(-c3ccc(C(C)=O)cc3)o2)cc1-c1ccccc1C)C(=O)O | 6.6 nM | 
12 | COc1ccc(-c2ccc(COCc3ccc(C(=O)N[C@@H](CCSC)C(=O)O)c(-c4ccccc4C)c3)o2)cc1 | 8.4 nM | 
13 | CSCC[C@H](NC(=O)c1ccc(COCc2ccc(-c3ccc(C(F)(F)F)cc3)o2)cc1-c1ccccc1C)C(=O)O | 3 nM | 
14 | CSCC[C@H](NC(=O)c1ccc(COCc2ccc(-c3ccccc3)o2)cc1-c1ccccc1C)C(=O)O | 6 nM | 
15 | CSCC[C@H](NC(=O)c1ccc(COCc2ccc(-c3ccccn3)o2)cc1-c1ccccc1C)C(=O)O | 19 nM | 
16 | CSCC[C@H](NC(=O)c1ccc(CNCc2ccco2)cc1-c1ccccc1)C(=O)O | 560 nM | 
17 | CSCC[C@H](NC(=O)c1ccc(COc2ccccc2)cc1-c1ccccc1)C(=O)O | > 1000 nM | 
18 | CSCC[C@H](NC(=O)c1ccc(COCc2ccc(-c3ccc(SC)cc3)o2)cc1-c1ccccc1C)C(=O)O | 6.2 nM | 
19 | CSCC[C@H](NC(=O)c1ccc(COCc2ccc(-c3ccc(C)cc3)o2)cc1-c1ccccc1C)C(=O)O | 2.9 nM | 
20 | CSCC[C@H](NC(=O)c1ccc(COCc2ccc(-c3cccc([N+](=O)[O-])c3)o2)cc1-c1ccccc1C)C(=O)O | 6 nM | 
21 | CSCC[C@H](NC(=O)c1ccc(COCc2ccc(-c3ccccc3F)o2)cc1-c1ccccc1C)C(=O)O | 6.3 nM | 
22 | CSCC[C@H](NC(=O)c1ccc(COCc2ccc(-c3ccccc3C(F)(F)F)o2)cc1-c1ccccc1C)C(=O)O | 9.9 nM | 
23 | CSCC[C@H](NC(=O)c1ccc(COCc2ccc(-c3ccc(C=O)cc3)o2)cc1-c1ccccc1C)C(=O)O | 1.2 nM | 
24 | COc1ccccc1-c1ccc(COCc2ccc(C(=O)N[C@@H](CCSC)C(=O)O)c(-c3ccccc3C)c2)o1 | 20 nM | 
25 | COC(=O)[C@H](CCSC)NC(=O)c1ccc(COCc2ccc(Br)o2)cc1-c1ccccc1C | 3 nM | 
